Literature values, collected in US20090117076A1, “Methods For Treating Tumor Cells” (priority 2007, published 2009).
Where a name gives a salt, the structure may show the parent alone. Read-outs that look alike come from different tables or passages of the source.

Experiments:
[1] = primates
[2] = tested on: GIST; settings: for Median time to progression, historical value: single agent imatinib

| Compound | Abortifacient effect [1] | Overall response rate of tumor necrosis/apoptosis ([2]; human, in vivo) [%] | Median time to progression, historical value ([2]; subgroup with KIT exon 11 mutation) [days] | Median time to progression, historical value ([2]; subgroup without KIT exon 11 mutation) [days] |
| --- | --- | --- | --- | --- |
| interferon α-2b | abortifacient | – | – | – |
| Cc1ccc(NC(=O)c2ccc(CN3CCN(C)CC3)cc2)cc1Nc1nccc(-c2cccnc2)n1 [imatinib, imatinib mesylate] | – | 69 | 687 | 200 |
